In US20060183794A1, “Drug composition containing nf-kb inhibitor” (priority 2002, published 2006):

Key:
[1] = test system: cachexia symptoms induced by JCA-1 cells; experiment: Cancer cachexia model, JCA-1 tumor-bearing BALB/c nude mice; assay type: in vivo
Protocol: To assay the effect of the compounds represented by the general formula (1) or pharmacologically acceptable salts thereof on cachexia, cachexia-induced BALB/c nude mice were used as model mice of human patients with cachexia. Here, cachexia symptoms were induced using the androgen-insensitive human prostatic cancer cell-line JCA-1.
To measure the effect of DHMEQ on cachexia symptoms, the cachexia model mice were prepared using the aforementioned nude mice. JCA-1 cells (1×10^7 cells) suspended in 100 μl of PBS were inoculated subcutaneously into the flank of six-old-week nude mice (hereafter called tumor-bearing mice). Fourteen days after the inoculation, when the tumors had reached palpable sizes, the inoculated mice were randomly assigned to three groups: group 2 (Gr2; n=13), given DHMEQ (8 mg/kg bw) every day; group 3 (Gr3; n=13), given DMSO every day; and group 4 (Gr4; n=11), given nothing. Group 1 (Gr1; n=14), consisting of normal nude mice not inoculated with JCA-1 cells (hereinafter called “normal mice”), was also included. From the next day of administration of DHMEQ, the body weights (FIG. 20) and the tumor weights (FIG. 21) calculated from the tumor diameters were measured every other day. On day 26 after the start of administration of DHMEQ, all mice were dissected and the tumor weights (FIG. 22), the weights of fat around the testis (FIG. 23) the gastrocnemius weights (FIG. 24), and the hematocrits (FIG. 25; the ratio of the volume of blood cell components to that of whole blood, which can be measured by blood centrifugation) were measured. The measured values were summed up for every group.

NF-κB = NF-κB (Homo sapiens, UniProt P19838+Q04206); experiment: 6 kB-Luc reporter assay of NF-κB transcription in multiple myeloma cell lines; assay type: cell-based; set-up: endogenous in cells; host or cells: MM cell lines KMM1, RPMI8226, U266; settings: 5 μg/ml, 12-hour treatment; compared with non-treated cells
Protocol: Next, the inhibitory effect on activation of NF-κB was investigated using the reporter assay. First, 6 kB-Luc plasmid was introduced by transfection into the MM cell lines, KMM1, RPMI8226, and U266 (transfected on a scale of a 2×10^5 cells/transfection using DMRIE-C (Invitrogen)) After 12 hours, 12-hour treatment of cells with 5 μg/ml DHM2EQ was started and the suppressive effect of DHMEQ on the transcription by NF-κB was examined. […] The suppressive effect of DHMEQ on transcription by NF-κB was therefore indicated.

[2] = test system: ATL cell lines (MT-1 and TL-Om1); experiment: MTT assay, proliferation of ATL cell lines; assay type: cell-based, human
Protocol: Cells from the ATL cell lines (MT-1 and TL-Om1) and a control cell line (K562) were plated in 96-well plates at 1×10^5 cells/well and DHM2EQ was added at the desired final concentrations (2, 5, and 10 μg/ml). Cells to which the solvent DMSO had been added in equal volume (0 μg/ml) were used as […] incubation for 72 hours, cell viability was judged by the MTT assay. Relative MTT values were obtained as the ratio of the MMT values of DHM2EQ-treated cells to those of DHM2EQ-untreated cells, i.e., (MTT values of DHM2EQ-treated cells/MTT values of DHM2EQ-untreated cells)×100(%).
(§1) DHM2EQ was added to the ATL cell lines (MT-1 and TL-Om1) and a control cell line (K562) at a final concentration of 10 μg/ml and the cells were incubated for 12, 24, 48, and 72 hours. The proliferation-inhibitory effect was examined by the MTT assay. Cells to which the solvent DMSO had been added in equal volume were used as controls. Relative MTT values were obtained in the same manner as the aforementioned (1).

[3] = test system: normal peripheral blood mononuclear cells; experiment: MTT assay, normal peripheral blood mononuclear cells; assay type: cell-based, human
Protocol: Mononuclear cells were isolated from normal peripheral blood and DHM2EQ was added at final concentrations of 2, 5, and 10 μg/ml, followed by 72-hour incubation. The proliferation-inhibitory effect was examined by the MTT assay. Cells to which the solvent DMSO had been added in equal volume (0 μg/ml) were used as controls. The cell viability was represented as the ratio to the MTT value of the controls (DHM2EQ-untreated) by letting it=100%.
Next, to investigate the inhibitory effect of DHMEQ on proliferation of cells of multiple myeloma (MM) patients, MM cells (MM1, MM2, and MM3) were isolated from patients' bone marrow, incubated for 48 hours at the DHMEQ concentration of 10 μg/ml, and the proliferation-inhibitory effect was examined by the MTT assay. Peripheral blood mononuclear cells (PBMC) isolated from normal peripheral blood were used as control cells. In the figure, the vertical axis indicates the relative values of the MTT values of treated cells versus untreated cells, i.e., (DHMEQ-treated/untreated)×100%.

KMH2 = experiment: MTT assay, KMH2 cells, DHMEQ combined with antitumor agents; assay type: cell-based; settings: DHMEQ 10 μg/ml, 48 hours, with camptothecin, daunomycin or etoposide
Protocol: as §1
The effects of antitumor agents and the enhancing effect thereon were examined by the MTT assay method as described in Example 5(2).
In this example, the cells used were KMH2. The horizontal axes in FIG. 31 indicate the concentrations of each antitumor agent the DHMEQ concentration. The concentrations of each anticancer agent were set at three levels. The examination was performed on DHMEQ alone, the antitumor agent alone, or both in combination, at each level. DHMEQ was used at a concentration of 10 μg/ml and the treatment time was 48 hours. The vertical axis indicates the relative values of the MTT values of treated cells versus untreated cells, i.e., (treated/untreated)×100%.

[4] = 8 mg/kg bw every day, day 26, Gr2 vs Gr3 and Gr4

Chain of NF-κB (Q04206 whole entry): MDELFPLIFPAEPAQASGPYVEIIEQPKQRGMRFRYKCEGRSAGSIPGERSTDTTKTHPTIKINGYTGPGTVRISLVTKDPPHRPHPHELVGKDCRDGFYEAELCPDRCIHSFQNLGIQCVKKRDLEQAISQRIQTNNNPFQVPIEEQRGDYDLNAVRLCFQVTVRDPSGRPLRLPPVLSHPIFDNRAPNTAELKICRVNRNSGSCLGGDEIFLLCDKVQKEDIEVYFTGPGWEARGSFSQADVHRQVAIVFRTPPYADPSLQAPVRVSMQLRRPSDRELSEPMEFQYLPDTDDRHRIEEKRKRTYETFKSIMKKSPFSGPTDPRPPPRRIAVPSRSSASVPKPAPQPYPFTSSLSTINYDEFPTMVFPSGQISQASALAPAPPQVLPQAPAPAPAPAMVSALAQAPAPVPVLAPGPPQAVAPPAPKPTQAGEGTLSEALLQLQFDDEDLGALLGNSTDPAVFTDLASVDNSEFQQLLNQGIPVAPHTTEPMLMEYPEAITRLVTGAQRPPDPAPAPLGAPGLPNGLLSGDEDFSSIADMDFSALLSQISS
Chain of NF-κB (P19838 1-433 limits assumed): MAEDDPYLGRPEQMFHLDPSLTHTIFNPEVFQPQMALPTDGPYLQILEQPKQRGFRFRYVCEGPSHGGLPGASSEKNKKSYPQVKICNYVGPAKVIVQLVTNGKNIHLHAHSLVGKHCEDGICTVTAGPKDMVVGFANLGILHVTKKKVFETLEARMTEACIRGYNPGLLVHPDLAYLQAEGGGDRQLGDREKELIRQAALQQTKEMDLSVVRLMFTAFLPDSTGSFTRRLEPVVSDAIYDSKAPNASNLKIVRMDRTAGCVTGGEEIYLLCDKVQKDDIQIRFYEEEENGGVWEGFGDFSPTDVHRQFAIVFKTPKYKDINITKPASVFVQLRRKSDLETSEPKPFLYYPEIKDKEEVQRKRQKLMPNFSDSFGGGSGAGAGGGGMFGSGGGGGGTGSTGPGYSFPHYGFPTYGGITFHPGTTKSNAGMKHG

## O=C(NC1=CC(=O)C2OC2C1O)c1ccccc1O (stereo not drawn) [DHMEQ, 5,6-epoxy-4-hydroxy-3-salicyloylamino-2-cyclohexenone]
[1]; 8 mg/kg bw every day (Gr2) vs Gr3 and Gr4
  body weight reduction: significantly suppressed
[1]; 8 mg/kg bw every day, day 26
  influence on internal organ weights: No unfavorable influence
  regressive effect on tumors (tumor weight): no regressive effect
[1]; [4]
  gastrocnemius weight: weight reduction was significantly suppressed
  hematocrit: significant tendency of recovery
  weight of fat around the testis: weight reduction was significantly suppressed
NF-κB
  transcription by NF-κB suppressed by (reporter assay): about 50%
[2]; 10 μg/ml, 12, 24, 48, 72 hours
  cell proliferation, time course (MTT): inhibited in proportion to the DHM2EQ treatment time
[2]; 2, 5, 10 μg/ml, 72 hours
  cell proliferation, concentration dependence (MTT): inhibited in proportion to the DHM2EQ concentrations added
[3]; 2, 5, 10 μg/ml, 72 hours
  proliferation of normal peripheral blood mononuclear cells (MTT): almost no inhibitory effect
[3]; PBMC control, 10 μg/ml, 48 hours
  influence on peripheral blood mononuclear cells (MTT): almost no influence
KMH2
  effect on the action of antitumor agents (MTT): enhances the effect of any antitumor agent used
